Several values for one entry are separate records, joined by “and”; a condition that tells them apart may be missing. Equal values may be shown once.
Legend:
Test in all cases: KINOMEscan competition binding
Conditions in all cases: compound 10.0 µM
ALK (human) = ALK (human) (UniProt Q9UM73)
ANKK1 (human) = ANKK1 (human) (UniProt Q8NFD2)
AURKB (human) = AURKB (human) (UniProt Q96GD4)
CAMK1D (human) = CAMK1D (human) (UniProt Q8IU85)
CLK4 (human) = CLK4 (human) (UniProt Q9HAZ1)
CSNK2A2 (human) = CSNK2A2 (human) (UniProt P19784)
DCLK2 (human) = DCLK2 (human) (UniProt Q8N568)
DYRK1B (human) = DYRK1B (human) (UniProt Q9Y463)
EPHA7 (human) = EPHA7 (human) (UniProt Q15375)
EPHB3 (human) = EPHB3 (human) (UniProt P54753)
Chain of EPHB3 (human) (P54753 whole entry, looked up): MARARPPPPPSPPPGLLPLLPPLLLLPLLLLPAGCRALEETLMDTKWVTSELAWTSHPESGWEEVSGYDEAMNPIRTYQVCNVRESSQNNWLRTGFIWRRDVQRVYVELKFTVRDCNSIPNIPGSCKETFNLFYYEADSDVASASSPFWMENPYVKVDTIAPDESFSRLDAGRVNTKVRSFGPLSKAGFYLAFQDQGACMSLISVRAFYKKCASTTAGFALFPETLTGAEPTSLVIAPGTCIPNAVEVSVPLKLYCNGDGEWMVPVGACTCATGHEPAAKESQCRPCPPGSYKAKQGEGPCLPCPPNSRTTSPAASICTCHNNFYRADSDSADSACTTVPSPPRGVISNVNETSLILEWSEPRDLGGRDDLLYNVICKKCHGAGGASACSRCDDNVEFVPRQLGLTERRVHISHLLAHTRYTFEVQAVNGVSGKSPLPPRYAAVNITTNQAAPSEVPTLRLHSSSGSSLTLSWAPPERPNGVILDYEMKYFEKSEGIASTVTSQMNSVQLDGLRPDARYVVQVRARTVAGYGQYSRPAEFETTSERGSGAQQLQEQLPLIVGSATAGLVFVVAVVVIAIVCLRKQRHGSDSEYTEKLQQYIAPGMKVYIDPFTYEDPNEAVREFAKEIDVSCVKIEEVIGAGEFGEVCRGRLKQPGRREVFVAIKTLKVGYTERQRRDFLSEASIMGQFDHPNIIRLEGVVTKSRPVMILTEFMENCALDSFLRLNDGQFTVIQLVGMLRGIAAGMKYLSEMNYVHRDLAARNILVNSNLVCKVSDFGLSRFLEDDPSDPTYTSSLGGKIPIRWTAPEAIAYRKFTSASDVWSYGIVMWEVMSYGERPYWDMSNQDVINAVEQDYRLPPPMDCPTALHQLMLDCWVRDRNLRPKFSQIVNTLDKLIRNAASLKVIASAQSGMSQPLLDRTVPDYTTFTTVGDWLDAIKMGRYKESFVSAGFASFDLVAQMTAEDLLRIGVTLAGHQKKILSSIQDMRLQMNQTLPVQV

FLT3 (human) = FLT3 (human) (UniProt P36888)
[1] = system: FLT3 (human), P36888 [ITD]
[2] = system: FLT3 (human), P36888 [N841I]
HIPK1 (human) = HIPK1 (human) (UniProt Q86Z02)
KDR (human) = KDR (human) (UniProt P35968)
LATS1 (human) = LATS1 (human) (UniProt O95835)
MAP4K5 (human) = MAP4K5 (human) (UniProt Q9Y4K4)
MAPK11 (human) = MAPK11 (human) (UniProt Q15759)
Chain of MAPK11 (human) (Q15759 whole entry, looked up): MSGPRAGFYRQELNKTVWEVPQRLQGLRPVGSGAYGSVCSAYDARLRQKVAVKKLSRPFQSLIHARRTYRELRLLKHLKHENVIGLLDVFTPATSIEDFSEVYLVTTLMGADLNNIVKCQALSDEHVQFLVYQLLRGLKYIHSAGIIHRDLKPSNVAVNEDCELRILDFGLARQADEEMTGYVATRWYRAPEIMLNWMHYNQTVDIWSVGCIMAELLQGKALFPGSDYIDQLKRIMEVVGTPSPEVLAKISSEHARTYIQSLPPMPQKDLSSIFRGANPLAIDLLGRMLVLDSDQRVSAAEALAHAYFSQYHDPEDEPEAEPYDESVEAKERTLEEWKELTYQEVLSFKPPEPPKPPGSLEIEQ

MAPK13 (human) = MAPK13 (human) (UniProt O15264)
MARK2 (human) = MARK2 (human) (UniProt Q7KZI7)
MKNK1 (human) = MKNK1 (human) (UniProt Q9BUB5)
Chain of MKNK1 (human) (Q9BUB5 whole entry, looked up): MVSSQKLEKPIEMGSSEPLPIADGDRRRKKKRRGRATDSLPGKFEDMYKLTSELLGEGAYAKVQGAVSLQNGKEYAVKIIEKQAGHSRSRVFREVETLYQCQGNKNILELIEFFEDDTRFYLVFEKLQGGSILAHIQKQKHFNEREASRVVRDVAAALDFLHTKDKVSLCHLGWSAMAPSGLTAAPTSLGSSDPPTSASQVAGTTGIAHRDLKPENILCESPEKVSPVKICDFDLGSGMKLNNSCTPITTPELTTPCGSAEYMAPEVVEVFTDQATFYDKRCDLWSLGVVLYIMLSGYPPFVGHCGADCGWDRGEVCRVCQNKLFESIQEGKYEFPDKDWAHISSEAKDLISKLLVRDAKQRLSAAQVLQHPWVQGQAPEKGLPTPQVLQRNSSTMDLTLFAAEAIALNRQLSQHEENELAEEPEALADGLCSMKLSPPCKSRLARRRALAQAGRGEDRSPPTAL

MYLK2 (human) = MYLK2 (human) (UniProt Q9H1R3)
NEK1 (human) = NEK1 (human) (UniProt Q96PY6)
PAK2 (human) = PAK2 (human) (UniProt Q13177)
Chain of PAK2 (human) (Q13177 whole entry, looked up): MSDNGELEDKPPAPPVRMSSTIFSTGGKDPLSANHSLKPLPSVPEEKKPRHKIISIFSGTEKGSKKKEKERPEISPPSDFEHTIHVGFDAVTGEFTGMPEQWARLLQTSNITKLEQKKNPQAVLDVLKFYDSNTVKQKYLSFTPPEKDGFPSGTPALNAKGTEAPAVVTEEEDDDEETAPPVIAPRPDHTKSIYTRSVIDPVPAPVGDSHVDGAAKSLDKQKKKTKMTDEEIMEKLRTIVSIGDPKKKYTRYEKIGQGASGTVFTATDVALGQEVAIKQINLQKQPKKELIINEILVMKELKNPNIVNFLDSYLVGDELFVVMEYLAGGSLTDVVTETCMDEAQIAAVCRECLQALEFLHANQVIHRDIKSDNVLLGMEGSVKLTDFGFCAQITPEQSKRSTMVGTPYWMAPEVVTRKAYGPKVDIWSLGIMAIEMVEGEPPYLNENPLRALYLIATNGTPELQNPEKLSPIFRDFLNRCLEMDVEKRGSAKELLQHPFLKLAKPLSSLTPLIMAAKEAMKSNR

PIP4K2B (human) = PIP4K2B (human) (UniProt P78356)
PLK1 (human) = PLK1 (human) (UniProt P53350)
PRKAA1 (human) = PRKAA1 (human) (UniProt Q13131)
PRKCE (human) = PRKCE (human) (UniProt Q02156)
PRKG1 (human) = PRKG1 (human) (UniProt Q13976)
PRKX (human) = PRKX (human) (UniProt P51817)
PTK6 (human) = PTK6 (human) (UniProt Q13882)
RIOK2 (human) = RIOK2 (human) (UniProt Q9BVS4)
ROS1 (human) = ROS1 (human) (UniProt P08922)
RPS6KA5 KD1 (human) = RPS6KA5 KD1 (human) (UniProt O75582)
Chain of RPS6KA5 KD1 (human) (O75582 whole entry, looked up): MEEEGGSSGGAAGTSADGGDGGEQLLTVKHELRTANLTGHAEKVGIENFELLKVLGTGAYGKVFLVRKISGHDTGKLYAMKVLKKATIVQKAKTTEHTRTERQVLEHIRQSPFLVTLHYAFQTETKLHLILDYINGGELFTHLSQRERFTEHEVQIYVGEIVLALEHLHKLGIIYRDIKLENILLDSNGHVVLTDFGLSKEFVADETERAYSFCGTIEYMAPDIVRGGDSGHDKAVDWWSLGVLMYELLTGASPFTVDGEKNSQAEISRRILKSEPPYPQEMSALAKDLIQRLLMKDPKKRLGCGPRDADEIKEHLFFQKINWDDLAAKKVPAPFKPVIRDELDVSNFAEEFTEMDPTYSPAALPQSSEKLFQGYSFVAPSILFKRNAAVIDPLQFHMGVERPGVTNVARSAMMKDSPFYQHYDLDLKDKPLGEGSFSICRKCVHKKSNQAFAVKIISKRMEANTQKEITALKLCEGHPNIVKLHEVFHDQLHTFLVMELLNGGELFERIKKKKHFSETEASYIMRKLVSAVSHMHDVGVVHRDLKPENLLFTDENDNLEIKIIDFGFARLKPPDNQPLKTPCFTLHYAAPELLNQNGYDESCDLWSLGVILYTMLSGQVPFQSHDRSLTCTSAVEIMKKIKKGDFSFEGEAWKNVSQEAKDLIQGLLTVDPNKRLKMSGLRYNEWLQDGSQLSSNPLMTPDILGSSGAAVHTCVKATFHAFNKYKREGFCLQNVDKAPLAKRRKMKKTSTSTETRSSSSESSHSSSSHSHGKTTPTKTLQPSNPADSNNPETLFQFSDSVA

RPS6KA5 KD2 (human) = RPS6KA5 KD2 (human) (UniProt O75582)
Chain of RPS6KA5 KD2 (human) (O75582 whole entry, looked up): as above

STK17B (human) = STK17B (human) (UniProt O94768)
STK38L (human) = STK38L (human) (UniProt Q9Y2H1)
TAOK1 (human) = TAOK1 (human) (UniProt Q7L7X3)
TLK2 (human) = TLK2 (human) (UniProt Q86UE8)
Chain of TLK2 (human) (Q86UE8 whole entry, looked up): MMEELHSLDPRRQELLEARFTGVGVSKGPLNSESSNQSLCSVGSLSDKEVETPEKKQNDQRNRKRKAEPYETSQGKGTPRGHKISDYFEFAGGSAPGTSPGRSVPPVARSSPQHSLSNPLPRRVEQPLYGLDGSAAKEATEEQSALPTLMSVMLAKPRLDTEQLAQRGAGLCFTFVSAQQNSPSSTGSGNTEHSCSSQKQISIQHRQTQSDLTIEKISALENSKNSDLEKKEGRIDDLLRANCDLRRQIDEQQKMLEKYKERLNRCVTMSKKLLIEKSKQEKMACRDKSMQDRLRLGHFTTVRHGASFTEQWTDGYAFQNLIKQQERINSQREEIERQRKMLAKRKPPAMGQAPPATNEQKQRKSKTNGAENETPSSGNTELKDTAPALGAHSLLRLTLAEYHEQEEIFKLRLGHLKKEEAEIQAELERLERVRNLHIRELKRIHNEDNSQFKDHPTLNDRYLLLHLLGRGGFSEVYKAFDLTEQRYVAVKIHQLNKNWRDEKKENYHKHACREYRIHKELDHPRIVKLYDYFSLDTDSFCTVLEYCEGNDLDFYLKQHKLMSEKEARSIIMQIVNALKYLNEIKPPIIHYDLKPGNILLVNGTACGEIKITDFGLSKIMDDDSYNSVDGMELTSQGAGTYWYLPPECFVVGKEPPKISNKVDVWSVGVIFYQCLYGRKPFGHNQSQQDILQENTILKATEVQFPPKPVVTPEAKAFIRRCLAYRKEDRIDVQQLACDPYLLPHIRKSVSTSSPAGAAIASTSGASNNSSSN

TYRO3 (human) = TYRO3 (human) (UniProt Q06418)
Chain of TYRO3 (human) (Q06418 whole entry, looked up): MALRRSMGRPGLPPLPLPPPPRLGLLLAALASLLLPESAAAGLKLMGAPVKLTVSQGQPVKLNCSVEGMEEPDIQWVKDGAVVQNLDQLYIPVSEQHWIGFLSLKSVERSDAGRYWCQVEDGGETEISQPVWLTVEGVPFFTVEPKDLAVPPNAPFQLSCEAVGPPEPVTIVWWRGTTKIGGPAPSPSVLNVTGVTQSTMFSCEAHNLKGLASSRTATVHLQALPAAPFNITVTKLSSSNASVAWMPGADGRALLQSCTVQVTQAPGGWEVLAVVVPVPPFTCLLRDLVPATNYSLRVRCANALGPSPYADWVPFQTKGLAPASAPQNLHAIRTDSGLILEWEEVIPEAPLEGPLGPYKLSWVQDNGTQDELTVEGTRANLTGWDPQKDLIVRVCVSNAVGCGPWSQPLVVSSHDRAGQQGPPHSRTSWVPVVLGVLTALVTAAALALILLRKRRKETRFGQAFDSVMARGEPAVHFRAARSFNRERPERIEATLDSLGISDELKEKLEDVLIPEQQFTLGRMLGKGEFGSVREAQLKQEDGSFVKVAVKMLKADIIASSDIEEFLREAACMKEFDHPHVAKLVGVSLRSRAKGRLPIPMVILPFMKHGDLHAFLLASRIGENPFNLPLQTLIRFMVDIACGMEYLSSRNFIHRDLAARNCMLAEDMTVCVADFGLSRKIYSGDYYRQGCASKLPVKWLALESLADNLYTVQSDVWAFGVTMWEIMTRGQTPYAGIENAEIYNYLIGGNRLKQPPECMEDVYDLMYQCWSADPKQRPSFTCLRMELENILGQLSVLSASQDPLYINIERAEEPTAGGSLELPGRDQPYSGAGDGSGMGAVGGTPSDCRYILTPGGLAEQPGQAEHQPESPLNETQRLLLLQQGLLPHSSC

SMILES	kinase still bound, per cent of control (ALK (human))	kinase still bound, per cent of control (ANKK1 (human))	kinase still bound, per cent of control (AURKB (human))	kinase still bound, per cent of control (CAMK1D (human))	kinase still bound, per cent of control (CLK4 (human))	kinase still bound, per cent of control (CSNK2A2 (human))	kinase still bound, per cent of control (DCLK2 (human))	kinase still bound, per cent of control (DYRK1B (human))	kinase still bound, per cent of control (EPHA7 (human))	kinase still bound, per cent of control (EPHB3 (human))	kinase still bound, per cent of control (FLT3 (human))	kinase still bound, per cent of control [1]	kinase still bound, per cent of control [2]	kinase still bound, per cent of control (HIPK1 (human))	kinase still bound, per cent of control (KDR (human))	kinase still bound, per cent of control (LATS1 (human))	kinase still bound, per cent of control (MAP4K5 (human))	kinase still bound, per cent of control (MAPK11 (human))	kinase still bound, per cent of control (MAPK13 (human))	kinase still bound, per cent of control (MARK2 (human))	further results
CCN1CCN(Cc2ccc(Nc3ncc4c(n3)N(C)c3ccccc3C(=O)N4C)cc2C(F)(F)F)CC1	64%	18%	0.95%	76%	100%	100%	1.3%	68%	100%	80%	100%	19%	21%	78%	100%	100%	35%	82%	100%	40%	kinase still bound, per cent of control (MKNK1 (human)): 100%; kinase still bound, per cent of control (MYLK2 (human)): 88%; kinase still bound, per cent of control (NEK1 (human)): 66%; kinase still bound, per cent of control (PAK2 (human)): 78%; kinase still bound, per cent of control (PIP4K2B (human)): 31%; kinase still bound, per cent of control (PLK1 (human)): 27%; kinase still bound, per cent of control (PRKAA1 (human)): 2.4%; kinase still bound, per cent of control (PRKCE (human)): 81%; kinase still bound, per cent of control (PRKG1 (human)): 100%; kinase still bound, per cent of control (PRKX (human)): 100%; kinase still bound, per cent of control (PTK6 (human)): 29%; kinase still bound, per cent of control (RIOK2 (human)): 100%; kinase still bound, per cent of control (ROS1 (human)): 11%; kinase still bound, per cent of control (RPS6KA5 KD1 (human)): 100%; kinase still bound, per cent of control (RPS6KA5 KD2 (human)): 100%; kinase still bound, per cent of control (STK17B (human)): 100%; kinase still bound, per cent of control (STK38L (human)): 90%; kinase still bound, per cent of control (TAOK1 (human)): 0.2%; kinase still bound, per cent of control (TLK2 (human)): 89%; kinase still bound, per cent of control (TYRO3 (human)): 92%
N#Cc1c(NC(=O)c2cccc3ccccc23)sc2c1CCCC2	100%	78%	94%	85%	84%	94%	100%	89%	84%	98%	94% and 87%	97%	86%	91%	96%	93%	65%	100%	46%	100%	kinase still bound, per cent of control (MKNK1 (human)): 100%; kinase still bound, per cent of control (MYLK2 (human)): 100%; kinase still bound, per cent of control (NEK1 (human)): 100%; kinase still bound, per cent of control (PAK2 (human)): 97%; kinase still bound, per cent of control (PIP4K2B (human)): 100%; kinase still bound, per cent of control (PLK1 (human)): 81%; kinase still bound, per cent of control (PRKAA1 (human)): 80%; kinase still bound, per cent of control (PRKCE (human)): 100%; kinase still bound, per cent of control (PRKG1 (human)): 88%; kinase still bound, per cent of control (PRKX (human)): 100%; kinase still bound, per cent of control (PTK6 (human)): 46%; kinase still bound, per cent of control (RIOK2 (human)): 91%; kinase still bound, per cent of control (ROS1 (human)): 90%; kinase still bound, per cent of control (RPS6KA5 KD1 (human)): 85%; kinase still bound, per cent of control (RPS6KA5 KD2 (human)): 95%; kinase still bound, per cent of control (STK17B (human)): 100%; kinase still bound, per cent of control (STK38L (human)): 98%; kinase still bound, per cent of control (TAOK1 (human)): 100%; kinase still bound, per cent of control (TLK2 (human)): 100%; kinase still bound, per cent of control (TYRO3 (human)): 76%

From the kinase profiling compilation of Christmann-Franck et al. (2016)
